Test results published in ChEMBL document CHEMBL1201862, “PubChem BioAssay data set” (2004).
Activity calls are given as the source filed them.

Key:
Estrogen receptor beta = Estrogen receptor beta (Homo sapiens, UniProt Q92731); assay: blockers of SRC-3 recruitment to ERβ – biochemical, ELISA, streptavidin-HRP readout, orthogonal assay, confirmation (AID 1060)
[1] = target: T1, Voltage-gated N-type calcium channel alpha-1B subunit/Amyloid beta A4 precursor protein-binding family A member 1 (Homo sapiens, UniProt Q00975+Q02410); assay type: protein assay
T1 sequence (Q00975 whole entry): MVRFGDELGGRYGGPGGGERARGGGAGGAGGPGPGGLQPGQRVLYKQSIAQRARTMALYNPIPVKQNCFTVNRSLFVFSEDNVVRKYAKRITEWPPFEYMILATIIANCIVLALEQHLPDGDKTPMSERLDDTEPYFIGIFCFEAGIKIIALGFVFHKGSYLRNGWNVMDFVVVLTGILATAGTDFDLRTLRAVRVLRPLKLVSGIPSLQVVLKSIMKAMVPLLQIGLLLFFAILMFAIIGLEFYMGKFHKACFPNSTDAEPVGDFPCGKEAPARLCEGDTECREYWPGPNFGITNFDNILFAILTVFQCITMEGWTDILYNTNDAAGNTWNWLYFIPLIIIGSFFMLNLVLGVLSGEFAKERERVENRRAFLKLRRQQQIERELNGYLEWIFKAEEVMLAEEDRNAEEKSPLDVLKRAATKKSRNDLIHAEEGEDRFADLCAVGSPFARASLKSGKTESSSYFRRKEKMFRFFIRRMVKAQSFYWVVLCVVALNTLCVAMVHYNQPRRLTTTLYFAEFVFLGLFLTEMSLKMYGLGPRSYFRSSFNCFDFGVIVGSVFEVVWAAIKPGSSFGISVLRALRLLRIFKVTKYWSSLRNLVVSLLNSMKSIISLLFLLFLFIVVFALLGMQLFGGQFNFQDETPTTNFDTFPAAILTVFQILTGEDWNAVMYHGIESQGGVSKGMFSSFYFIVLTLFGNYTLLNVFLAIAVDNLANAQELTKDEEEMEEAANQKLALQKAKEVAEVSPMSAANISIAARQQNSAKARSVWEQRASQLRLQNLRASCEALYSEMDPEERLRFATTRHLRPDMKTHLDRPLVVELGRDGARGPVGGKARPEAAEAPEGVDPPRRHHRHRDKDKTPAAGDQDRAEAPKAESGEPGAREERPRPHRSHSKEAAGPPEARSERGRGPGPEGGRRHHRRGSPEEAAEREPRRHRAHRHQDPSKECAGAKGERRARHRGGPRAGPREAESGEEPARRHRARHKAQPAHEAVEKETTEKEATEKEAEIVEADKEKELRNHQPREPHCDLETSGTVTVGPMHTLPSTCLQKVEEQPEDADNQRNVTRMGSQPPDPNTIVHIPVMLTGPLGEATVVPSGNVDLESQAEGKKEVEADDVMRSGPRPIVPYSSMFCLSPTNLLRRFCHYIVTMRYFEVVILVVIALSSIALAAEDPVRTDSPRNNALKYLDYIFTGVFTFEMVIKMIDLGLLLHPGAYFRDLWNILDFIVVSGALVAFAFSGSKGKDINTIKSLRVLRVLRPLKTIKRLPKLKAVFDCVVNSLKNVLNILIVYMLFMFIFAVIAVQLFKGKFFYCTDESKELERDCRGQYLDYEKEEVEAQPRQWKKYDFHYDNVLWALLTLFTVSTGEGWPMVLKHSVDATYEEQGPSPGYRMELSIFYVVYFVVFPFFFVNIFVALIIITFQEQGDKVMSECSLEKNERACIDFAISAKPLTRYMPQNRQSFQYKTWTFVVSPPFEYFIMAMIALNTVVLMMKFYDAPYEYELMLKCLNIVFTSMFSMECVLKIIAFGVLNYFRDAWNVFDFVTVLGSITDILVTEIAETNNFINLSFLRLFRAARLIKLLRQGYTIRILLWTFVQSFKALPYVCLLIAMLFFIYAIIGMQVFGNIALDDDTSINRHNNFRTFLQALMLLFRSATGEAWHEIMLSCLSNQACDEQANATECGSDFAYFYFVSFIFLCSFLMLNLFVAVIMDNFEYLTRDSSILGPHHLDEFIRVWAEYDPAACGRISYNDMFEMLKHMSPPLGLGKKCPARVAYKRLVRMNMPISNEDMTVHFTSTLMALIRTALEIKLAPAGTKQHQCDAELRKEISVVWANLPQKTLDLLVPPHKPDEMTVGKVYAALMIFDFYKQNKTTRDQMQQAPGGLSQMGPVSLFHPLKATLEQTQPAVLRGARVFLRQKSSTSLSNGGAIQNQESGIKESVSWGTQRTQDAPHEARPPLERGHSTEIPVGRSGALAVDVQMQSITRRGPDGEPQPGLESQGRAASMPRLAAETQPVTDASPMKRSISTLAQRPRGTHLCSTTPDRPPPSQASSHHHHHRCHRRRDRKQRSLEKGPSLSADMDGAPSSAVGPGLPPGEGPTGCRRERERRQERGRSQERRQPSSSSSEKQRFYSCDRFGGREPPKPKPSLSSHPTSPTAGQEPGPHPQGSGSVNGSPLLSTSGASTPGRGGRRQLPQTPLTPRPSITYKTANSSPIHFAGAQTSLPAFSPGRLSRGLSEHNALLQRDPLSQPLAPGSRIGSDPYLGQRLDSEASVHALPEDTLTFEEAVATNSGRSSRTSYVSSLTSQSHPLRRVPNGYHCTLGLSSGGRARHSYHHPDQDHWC
T1 sequence (Q02410 whole entry): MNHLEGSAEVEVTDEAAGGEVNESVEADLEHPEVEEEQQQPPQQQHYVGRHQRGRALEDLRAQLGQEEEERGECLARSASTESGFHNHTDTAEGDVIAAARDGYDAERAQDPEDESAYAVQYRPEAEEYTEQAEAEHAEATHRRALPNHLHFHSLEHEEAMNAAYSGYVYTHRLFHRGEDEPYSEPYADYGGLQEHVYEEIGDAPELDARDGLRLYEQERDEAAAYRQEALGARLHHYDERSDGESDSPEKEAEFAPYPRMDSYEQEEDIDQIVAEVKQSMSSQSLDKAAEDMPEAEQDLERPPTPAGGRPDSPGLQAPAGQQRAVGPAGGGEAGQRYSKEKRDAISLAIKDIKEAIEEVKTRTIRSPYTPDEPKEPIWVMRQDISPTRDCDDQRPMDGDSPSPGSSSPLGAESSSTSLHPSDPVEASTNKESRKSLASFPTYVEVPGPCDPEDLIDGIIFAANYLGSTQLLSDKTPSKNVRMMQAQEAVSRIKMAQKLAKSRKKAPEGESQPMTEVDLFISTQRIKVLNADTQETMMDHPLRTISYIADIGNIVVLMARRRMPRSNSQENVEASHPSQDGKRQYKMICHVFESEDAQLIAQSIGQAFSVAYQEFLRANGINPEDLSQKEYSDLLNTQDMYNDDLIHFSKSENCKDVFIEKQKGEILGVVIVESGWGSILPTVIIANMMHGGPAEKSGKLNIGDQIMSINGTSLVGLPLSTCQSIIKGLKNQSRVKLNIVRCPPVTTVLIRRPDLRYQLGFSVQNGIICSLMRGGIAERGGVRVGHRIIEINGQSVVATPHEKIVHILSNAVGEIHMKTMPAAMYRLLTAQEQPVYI

[2] = target: Induced myeloid leukemia cell differentiation protein Mcl-1 (Homo sapiens, UniProt Q07820); assay type: functional
[3] = target: T1, Voltage-gated N-type calcium channel alpha-1B subunit/Amyloid beta A4 precursor protein-binding family A member 1; assay: disruptors of Mint-PDZ/N-type channel peptide interaction – biochemical, HTRF, set 2, SAR follow-up (AID 434980); assay type: functional
Albumin = Albumin (Bos taurus, UniProt P02769); assay: Counterscreen for inhibitors of T-cell receptor (TCR)-CD3 interaction: Fluorescence-based biochemical high throughput dose response assay to identify inhibitors of T-cell receptor (TCR)-CD3 interaction using a TAMRA-labeled BSA probe.; assay type: functional
[4] = target: T1, Voltage-gated N-type calcium channel alpha-1B subunit/Amyloid beta A4 precursor protein-binding family A member 1; assay type: protein assay; remark: listed apart in the source
Genome polyprotein = Genome polyprotein (Hepatitis C virus, UniProt Q2Q167); assay: disruption of hepatitis C core self-association – biochemical, TR-FRET, dose response (AID 2159); set-up: species or system Hepacivirus hominis;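 note: blocks dimerization of HCV core protein measured by TR-FRET between tagged core106 pairs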
Genome polyprotein, sequence (Q2Q167 whole entry): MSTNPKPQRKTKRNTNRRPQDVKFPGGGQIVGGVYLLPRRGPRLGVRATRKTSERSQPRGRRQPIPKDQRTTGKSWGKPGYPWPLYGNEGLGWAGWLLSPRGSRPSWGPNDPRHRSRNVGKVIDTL

[5] = target: T2, Heat shock factor protein 1 (Mus musculus, UniProt P38532); assay: decrease of HSF1-responsive luciferase luminescence – cell-based, NIH3T3, dose retest, confirmation (AID 2382); assay type: functional;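 note: NIH3T3 fibroblasts with HSF1-driven luciferase reporter stressed by proteasome inhibitor MG132; luminescence from HSF1-driven luciferase expression after 8 hours of MG132 stress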
T2 sequence (P38532 whole entry): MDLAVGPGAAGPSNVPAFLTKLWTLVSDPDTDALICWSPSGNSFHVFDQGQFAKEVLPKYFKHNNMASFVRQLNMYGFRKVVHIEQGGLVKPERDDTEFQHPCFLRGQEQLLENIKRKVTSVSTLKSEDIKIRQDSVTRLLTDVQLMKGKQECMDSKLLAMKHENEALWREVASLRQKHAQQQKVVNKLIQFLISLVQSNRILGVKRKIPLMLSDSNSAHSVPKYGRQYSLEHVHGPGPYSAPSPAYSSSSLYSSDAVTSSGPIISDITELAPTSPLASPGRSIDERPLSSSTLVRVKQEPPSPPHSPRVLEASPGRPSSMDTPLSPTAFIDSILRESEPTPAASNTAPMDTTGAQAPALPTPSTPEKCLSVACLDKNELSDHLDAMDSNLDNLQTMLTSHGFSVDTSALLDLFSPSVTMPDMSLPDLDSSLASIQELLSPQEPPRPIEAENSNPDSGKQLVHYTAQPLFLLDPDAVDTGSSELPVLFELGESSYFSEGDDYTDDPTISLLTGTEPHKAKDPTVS

Large T antigen = Large T antigen (Simian virus 40, UniProt P03070); assay type: functional, Betapolyomavirus macacae;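 note: Confirmatory-stage PubChem screen for compounds that inhibit SV40 T antigen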
[6] = target: Protein-tyrosine kinase 2-beta (Homo sapiens, UniProt Q14289);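 note: potency of inhibitors of PYK2 kinase phosphorylation of poly-GT substrate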
Protein-tyrosine kinase 2-beta, sequence (Q14289 whole entry): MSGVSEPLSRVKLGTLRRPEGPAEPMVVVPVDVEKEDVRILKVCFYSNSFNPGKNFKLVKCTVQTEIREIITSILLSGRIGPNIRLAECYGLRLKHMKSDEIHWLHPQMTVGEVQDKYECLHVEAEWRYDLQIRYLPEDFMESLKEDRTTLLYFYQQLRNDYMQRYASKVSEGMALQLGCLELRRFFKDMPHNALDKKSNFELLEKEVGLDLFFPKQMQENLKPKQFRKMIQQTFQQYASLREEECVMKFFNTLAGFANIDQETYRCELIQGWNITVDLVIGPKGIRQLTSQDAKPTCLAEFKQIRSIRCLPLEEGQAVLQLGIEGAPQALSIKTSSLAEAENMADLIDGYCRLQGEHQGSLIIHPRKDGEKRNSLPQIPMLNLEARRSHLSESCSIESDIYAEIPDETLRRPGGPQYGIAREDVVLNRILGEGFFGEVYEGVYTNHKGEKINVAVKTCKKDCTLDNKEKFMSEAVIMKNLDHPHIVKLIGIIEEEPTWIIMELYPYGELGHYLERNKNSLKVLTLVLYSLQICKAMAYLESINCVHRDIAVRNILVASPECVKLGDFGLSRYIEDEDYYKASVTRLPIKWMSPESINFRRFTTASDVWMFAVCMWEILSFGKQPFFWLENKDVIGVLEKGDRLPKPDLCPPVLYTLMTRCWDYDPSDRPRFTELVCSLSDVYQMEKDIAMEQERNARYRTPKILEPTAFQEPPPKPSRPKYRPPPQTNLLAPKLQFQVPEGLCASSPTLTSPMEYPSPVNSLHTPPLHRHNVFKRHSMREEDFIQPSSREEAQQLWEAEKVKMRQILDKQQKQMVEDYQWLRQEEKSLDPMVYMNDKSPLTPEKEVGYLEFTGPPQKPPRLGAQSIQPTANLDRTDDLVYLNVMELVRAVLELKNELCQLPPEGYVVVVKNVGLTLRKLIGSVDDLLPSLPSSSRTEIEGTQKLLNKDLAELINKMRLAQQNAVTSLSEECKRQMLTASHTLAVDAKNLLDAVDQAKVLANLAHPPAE

[7] = target: T1, Voltage-gated N-type calcium channel alpha-1B subunit/Amyloid beta A4 precursor protein-binding family A member 1; assay: disruptors of Mint-PDZ/N-type channel peptide interaction – biochemical, HTRF, SAR follow-up (AID 2489); assay type: functional
[8] = NIH3T3 cell viability loss – ATP luminescence, mouse fibroblasts, counter-screen, dose response (AID 2010); assay type: functional, cell-based;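 note: cells exposed to compound for about 90 hours before reading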
[9] = Trypanosoma cruzi growth suppression in host cells – NIH3T3 host cells, beta-gal luminescence, confirmation (AID 2044); assay type: functional, cell-based;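 note: intracellular parasites grown in NIH/3T3 mouse fibroblasts as host cells; luminescent beta-galactosidase reporter signal from transgenic T. cruzi replicating inside host cells; inhibitors lower the luminescence signal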
[10] = HEK-293T viability loss after treatment – luminescence, T-cell screen hits, cytotoxicity control for TCR NF-kB inhibitor project, dose response (AID 489026); assay type: functional, cell-based;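 note: cells exposed to compound about 14 hours before the viability readout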
[11] = target: T3, Microphthalmia-associated transcription factor (Homo sapiens, UniProt O75030); assay: reducers of TRPM1 reporter luminescence, concentration series – cell-based, SK-MEL-5, cherry-picked, set 3, MITF inhibitor project, dose response (AID 493073); assay type: functional;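 note: SK-MEL-5 melanoma cells with luciferase driven by the MITF target TRPM1 promoter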
T3 sequence (O75030 whole entry): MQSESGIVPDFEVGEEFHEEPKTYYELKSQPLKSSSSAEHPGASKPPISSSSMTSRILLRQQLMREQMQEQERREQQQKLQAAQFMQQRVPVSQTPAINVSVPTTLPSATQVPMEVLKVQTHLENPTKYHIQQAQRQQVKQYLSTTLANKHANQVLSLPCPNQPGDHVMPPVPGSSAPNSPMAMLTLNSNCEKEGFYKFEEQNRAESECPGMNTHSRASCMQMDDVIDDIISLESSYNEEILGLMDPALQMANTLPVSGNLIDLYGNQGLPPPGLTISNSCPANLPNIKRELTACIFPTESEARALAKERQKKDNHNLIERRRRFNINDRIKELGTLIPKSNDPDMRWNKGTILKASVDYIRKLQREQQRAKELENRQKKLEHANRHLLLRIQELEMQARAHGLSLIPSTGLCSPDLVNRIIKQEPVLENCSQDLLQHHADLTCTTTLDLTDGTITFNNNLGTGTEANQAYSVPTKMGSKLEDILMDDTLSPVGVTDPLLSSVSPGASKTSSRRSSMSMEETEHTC

Vero = assay: inhibition of WNV-induced cytopathic effect – cell-based, CPE readout (AID 1621); assay type: functional; conditions: Chlorocebus sabaeus
Prothrombin = Prothrombin (Homo sapiens, UniProt P00734); assay: Thrombin 1536 HTS Dose Response Confirmation. [Related pubchem assays: 1046 (Thrombin 1536 HTS; hits were confirmed in this assay)]; assay type: functional
[12] = target: T4, Mannose-6-phosphate isomerase (Homo sapiens, UniProt P34949); assay: MPI inhibition at elevated mannose 6-phosphate – biochemical, fluorescence intensity, high mannose 6-phosphate, primary screen (AID 1220)
T4 sequence (P34949 whole entry): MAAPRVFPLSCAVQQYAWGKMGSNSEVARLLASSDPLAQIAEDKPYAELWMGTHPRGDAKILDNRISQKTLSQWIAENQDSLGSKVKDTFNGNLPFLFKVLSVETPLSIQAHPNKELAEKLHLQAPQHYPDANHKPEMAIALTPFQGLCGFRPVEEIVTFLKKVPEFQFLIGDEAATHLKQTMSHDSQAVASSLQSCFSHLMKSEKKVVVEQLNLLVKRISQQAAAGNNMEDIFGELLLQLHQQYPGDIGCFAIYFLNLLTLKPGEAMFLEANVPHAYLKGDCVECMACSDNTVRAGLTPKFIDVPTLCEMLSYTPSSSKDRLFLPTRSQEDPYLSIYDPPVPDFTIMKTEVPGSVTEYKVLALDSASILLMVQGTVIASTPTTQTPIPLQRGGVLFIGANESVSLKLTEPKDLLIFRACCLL

[13] = target: Disintegrin and metalloproteinase domain-containing protein 17 (Homo sapiens, UniProt P78536); assay: exosite inhibitors of ADAM17, dose response, biochemical (AID 743260)
[14] = target: T5, Neuropeptide Y receptor type 1 (Homo sapiens, UniProt P25929); assay: Fluorescence-based dose response cell-based high-throughput screening assay for potentiators or agonists of NPY-Y1.; assay type: functional
T5 sequence (P25929 whole entry): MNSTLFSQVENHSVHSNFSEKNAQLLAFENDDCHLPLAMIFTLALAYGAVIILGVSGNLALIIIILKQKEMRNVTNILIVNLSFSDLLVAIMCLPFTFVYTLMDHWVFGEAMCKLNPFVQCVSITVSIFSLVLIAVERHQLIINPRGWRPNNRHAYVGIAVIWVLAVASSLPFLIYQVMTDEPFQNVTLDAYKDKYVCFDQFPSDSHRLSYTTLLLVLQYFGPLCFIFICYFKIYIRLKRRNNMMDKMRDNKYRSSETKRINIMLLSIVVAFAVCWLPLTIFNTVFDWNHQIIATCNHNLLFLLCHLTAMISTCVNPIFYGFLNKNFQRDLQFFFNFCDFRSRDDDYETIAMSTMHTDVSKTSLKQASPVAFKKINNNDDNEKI

[15] = HGIII-sPLA2 enzyme inhibition potency – biochemical, QFRET, IC50, dose response (AID 743457);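 note: green fluorescence rise as the enzyme cleaves BODIPY PC-A2 in liposomes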
[16] = target: T5, Neuropeptide Y receptor type 1; assay: Fluorescence-based dose response cell-based high-throughput screening assay for agonists of NPY-Y1. [Related pubchem assays: 1697 (Screening assay (NPY-Y1 agonists).), 1359 (Screening assay (NPY-Y2 potentiators or agonists).), 1304 (Screening assay (NPY-Y1 potentiators or agonists).), 1704 (Screening assay (CNGC inhibitors).), 1791 (Summary AID.)]; assay type: functional
HEK293 = assay: Fluorescence-based counterscreen for potentiators or agonists of NPY-Y1: cell-based high-throughput dose response assay for inhibitors of cyclic nucleotide gated ion channel (CNGC) activity. In this assay, the parental HEK293 cell line transfected with a cyclic-nucleotide gated ion channel (CNGC)-based cAMP sensor is used to measure inhibition of isoproterenol-induced CNGC …; assay type: functional; conditions: Homo sapiens
[17] = target: T6, Neuropeptide Y receptor type 2 (Homo sapiens, UniProt P49146); assay: Fluorescence-based counterscreen for agonists of NPY-Y1: cell-based high-throughput dose response assay for agonists of NPY-Y2.; assay type: functional
T6 sequence (P49146 whole entry): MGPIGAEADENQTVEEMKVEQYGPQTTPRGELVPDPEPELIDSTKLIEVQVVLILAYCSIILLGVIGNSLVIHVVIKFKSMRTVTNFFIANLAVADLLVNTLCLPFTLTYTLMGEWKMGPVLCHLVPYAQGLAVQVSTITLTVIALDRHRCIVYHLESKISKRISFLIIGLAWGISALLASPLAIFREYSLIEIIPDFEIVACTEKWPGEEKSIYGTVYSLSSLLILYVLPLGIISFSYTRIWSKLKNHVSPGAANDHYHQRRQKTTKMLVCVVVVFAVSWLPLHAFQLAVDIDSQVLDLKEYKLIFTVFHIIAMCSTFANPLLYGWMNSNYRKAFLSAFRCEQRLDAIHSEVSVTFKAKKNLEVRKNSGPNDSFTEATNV

[18] = target: T6, Neuropeptide Y receptor type 2; assay: Fluorescence counterscreen for potentiators or agonists of NPY-Y1: Cell-based high-throughput dose response assay for potentiators or agonists of NPY-Y2.; assay type: functional
[19] = target: Heat shock protein HSP 90-alpha (Homo sapiens, UniProt P07900); assay type: functional, organism-based
[20] = inhibition of ADAM10 peptide cleavage – biochemical, FRET peptide substrate, recombinant human ADAM10, selectivity assay for ADAM17 exosite inhibitor project, dose response (AID 743259);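 note: ADAM10 enzyme cleaving a FRET peptide substrate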

Estrogen receptor beta, sequence (Q92731 whole entry): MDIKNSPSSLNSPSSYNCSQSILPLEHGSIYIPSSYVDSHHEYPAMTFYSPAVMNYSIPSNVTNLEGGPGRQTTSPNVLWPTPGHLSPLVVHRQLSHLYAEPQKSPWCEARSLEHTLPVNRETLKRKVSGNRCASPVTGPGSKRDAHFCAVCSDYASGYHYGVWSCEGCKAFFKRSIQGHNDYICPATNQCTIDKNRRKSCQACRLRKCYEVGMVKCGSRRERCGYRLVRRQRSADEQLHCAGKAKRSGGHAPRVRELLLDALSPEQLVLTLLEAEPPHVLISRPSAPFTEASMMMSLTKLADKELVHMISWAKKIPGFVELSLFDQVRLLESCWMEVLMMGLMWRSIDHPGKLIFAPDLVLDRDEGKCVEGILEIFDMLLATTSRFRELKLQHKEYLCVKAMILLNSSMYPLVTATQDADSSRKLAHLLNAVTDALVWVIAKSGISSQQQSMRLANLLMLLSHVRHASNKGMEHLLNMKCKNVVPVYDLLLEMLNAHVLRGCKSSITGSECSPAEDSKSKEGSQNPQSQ

SMILES: Nc1ncnc2oc(-c3ccco3)c(-c3ccco3)c12
- IC50 (Estrogen receptor beta): 3.4 µM (not active)
- IC50 [1]: 2.6 µM (active)
- IC50 [2]: 4.12 µM (active)
- IC50 [3]: 2.42 µM (active)
- IC50 (Albumin): > 94.1 µM (inactive)
- IC50 [4]: 3.82 µM (active)
- IC50 (Genome polyprotein): > 49.8 µM (not active)
- EC50 [5]: 56.7 µM (active)
- IC50 (Large T antigen): 49.5 µM (active)
- IC50 [6]: 2.92 µM (active)
- IC50 [7]: 21.7 µM (active)

SMILES: CC(C)Cc1ccc(CN2CCCC(NC(=O)CSc3nncn3C)C2)cc1 (stereo not drawn)
- EC50 [8]: > 60 µM (not active)
- EC50 (cells): 0.071 µM (active)
- EC50 [9]: < 0.1 µM (active)

SMILES: CC(C)c1oc(=O)cc2c1[C@@H](O)[C@H]1OC(=O)[C@@]3(C)C[C@@H](O)[C@@H](O)[C@@]2(C)C13 (stereo partly drawn)
- IC50 [10]: > 80 µM (inactive)
- AC50 [11]: 1.63 µM (active)
- IC50 (Vero): 30.5 µM (active)

SMILES: COc1ccc(C(=O)n2c(SC)nc3cc4c(cc32)OCCO4)cc1
- IC50 (Prothrombin): 0.955 µM (active)

SMILES: CC(C)/N=c1\scc(-c2cccs2)n1/N=C/c1ccc(O)c(O)c1O
- IC50 [12]: > 50 µM (not active)
- IC50 [13]: 31.2 µM (inactive)
- EC50 [14]: > 35.4 µM (not active)
- IC50 [15]: 41.3 µM (inactive)
- EC50 [16]: > 3.94 µM (active)
- IC50 (HEK293): > 35.4 µM (not active)
- EC50 [17]: 24.3 µM (not active)
- EC50 [18]: 22 µM (not active)
- AC50 [19]: 3.46 µM (active)
- IC50 [20]: 12.8 µM (inactive)
